From US20230218577A1, “USE OF HEAT SHOCK PROTEIN INHIBITORS FOR THE TREATMENT OF NEURODEVELOPMENTAL DISORDERS” (The Children's Medical Center Corporation, priority 2020, published 2023) come the findings set out here.

The structures appear in SMILES notation.

The subject of assay [1] is cilia (ACIII) in ctrl-sh hippocampal neurons. Kind of assay: cilia^HCA in ctrl-sh neurons. The following applies: four-day dose curve between DIV9-13. The assay is classed as cell-based, rat. From the text: To investigate how mTORC1 dysregulation due to neuronal TSC loss affected ciliation, High Content image-based Assays (HCAs) were developed for unbiased quantification of cilia and mTORC1 activity (hereafter cilia^HCA and mTORC1^HCA) in primary neurons. As an in vitro model of TSC, rat hippocampal neurons transduced with lentiviral vectors (LV) expressing a short hairpin RNA (shRNA) were used directed against either the Tsc2 (Tsc2-sh) or the luciferase gene as a control (ctrl-sh) tagged with GFP. […] Both the cilia^HCA and mTORC1^HCA were optimized as imaged-based assays, where cilia and mTORC1 activity was monitored by immunofluorescent staining of ACIII to identify cilia and pS6 as a proxy of mTORC1 activation (FIGS. 8C-F). Neurons were transduced in culture at day in vitro (DIV) 1, and cilia and mTORC1 activity were assessed in a time course experiment at DIV2, 5, 7, 13, and 20 (FIG. 2A). […] Reduced ciliation was validated by manual imaging and quantification of LV-infected neurons co-labeled with ACIII/centrin (FIGS. 8G-H). No changes in size or ACIII intensity were detected in the remaining cilia of the Tsc2-sh neurons (FIGS. 8I-J). […]

Assay [2] relates to hspB1 mRNA in Tsc2-sh neurons. Kind of assay: qPCR of hspB1 mRNA in Tsc2-sh neurons. The assay is classed as cell-based, rat. As to conditions: 50 nM between DIV9-13. The procedure:
Tsc2-sh neurons were treated with 17-AGG and it was observed that increased hspB1 expression was reversed by the same dosing scheme that prevented cilia loss (50 nM between DIV9-13) (FIGS. 6A-D). To determine whether a similar dysregulation is present in the brains of TSC patients, the gene expression data from cortical tubers and unaffected brain tissue (Martin et al., The genomic landscape of tuberous sclerosis complex; Nat Commun 8, 15816 (2017)) was examined.
Total RNA was prepared with the RNA kit (Zimo Research) following the instructions of the manufacturer and quantified by a spectrophotometer. A total of 1 μg of poly(A) mRNA was used for reverse transcription using the Reverse Transcriptase (BIO-RAD). Real-time PCRs were performed using Power SYBG Green PCR Master Mix (Applied Biosystems). All quantitative PCR (qPCR) reactions were performed in triplicate and normalized against glyceraldehyde-3-phosphate dehydrogenase (GAPDH). Analysis was performed using QuantStudio™ 3 Real-Time PCR System (Thermo Fisher Scientific). The qPCR cycle was: 95° C. for 10 min followed by 40 cycles at 95° C. for 15 sec and 60° C. for 1 min.
In general terms: In qPCR the cycle at which signal appears reflects the starting amount.

As for `C=CCNC1=C2C[C@@H](C)C[C@H](OC)[C@H](O)[C@@H](C)/C=C(\C)[C@H](OC(N)=O)[C@@H](OC)C=C/C=C(\C)C(=O)NC(=CC1=O)C2=O` [17-AGG, 3 S,5S,6R,7S,8E,10R,11S,12E,14E)-21-(allylamino)-6-hydroxy-5,11-dimethoxy-3,7,9,15-tetramethyl-16,20,22-trioxo-17-azabicyclo[16.3.1]docosa-8,12,14,18,21-pentaen-10-yl] carbamate], in assay [1], the ciliation entry is “did not increase”. Also, the “increased hspB1 expression” value in assay [2] is “reversed”.
